Laboratory results published in article PMC9822021, “Biological Activity of Amidino-Substituted Imidazo [4,5-b]pyridines” (Molecules, 2022).

Legend:
[1] = test system: Influenza H1N1 (A/Ned/378/05); experiment: Antiviral CPE reduction assay; format: cell-based; conditions: Influenza A virus, MDCK cells
[2] = test system: Influenza H3N2 (A/HK/7/87); experiment: Antiviral CPE reduction assay; format: cell-based; conditions: Influenza A virus, MDCK cells
[3] = test system: Influenza B (B/Ned/537/05); experiment: Antiviral CPE reduction assay; format: cell-based; conditions: Influenza B virus, MDCK cells
[4] = Cytotoxicity in virus host cell line, MTS assay; conditions: dog
[5] = test system: HCT-116 colorectal carcinoma cells; experiment: In vitro antiproliferative activity, MTS proliferation assay; format: cell-based; conditions: Homo sapiens, 72 h
Source text: (§1) Human cancer cell lines used in this manuscript, namely Capan-1, HCT-116, NCI-H460, LN-229, HL-60, K-562, Z-138, SW620, PC3 and HeLa, were acquired from the American Type Culture Collection (ATCC, Manassas, VA, USA), while the DND-41 cell line was purchased from the Deutsche Sammlung von Mikroorganismen und Zellkulturen (DSMZ Leibniz-Institut, Germany). Culture media were purchased from Gibco Life Technologies, USA, and supplemented with 10% fetal bovine serum (HyClone, GE Healthcare Life Sciences, Chicago, IL, USA), except for the media for SW620, PC3 and HeLa cells, which were purchased from Sigma.
(§2) Adherent cell lines LN-229, HCT-116, NCI-H460 and Capan-1 cells were seeded at a density between 500 and 1500 cells per well in 384-well tissue culture plates (Greiner). […]. Cells were incubated for 72 h with compounds and were then analyzed using the CellTiter 96® AQueous One Solution Cell Proliferation Assay (MTS) reagent (Promega) according to the manufacturer’s instructions. Absorbance of the samples was measured at 490 nm using a SpectraMax Plus 384 (Molecular Devices), and OD values were used to calculate the 50% inhibitory concentration (IC50). Compounds were tested in two independent experiments. SW620, PC3 and HeLa cells were seeded in 96-well microtiter plates at 1 × 10^4 to 3 × 10^4 cells/mL, depending on the doubling times of the specific cell line. Test agents were then added in five 10-fold dilutions (10^−8 to 10^−4 M). Working dilutions were freshly prepared on the day of testing. After 72 h of incubation, the cell growth rate was evaluated using the MTT assay as described previously. Absorbance of the samples was measured at 570 nm, and OD values were used to calculate the 50% inhibitory concentration (IC50). Each test was performed in quadruplicate in at least two individual experiments.

[6] = test system: K-562 chronic myeloid leukemia cells; experiment: as above; format: cell-based; conditions: Homo sapiens, K562, 72 h
Source text: as §1, §2

[7] = test system: LN-229 glioblastoma cells; experiment: as above; format: cell-based; conditions: Homo sapiens, 72 h
Source text: as §1, §2

[8] = test system: NCI-H460 lung carcinoma cells; experiment: as above; format: cell-based; conditions: Homo sapiens, 72 h
Source text: as §1, §2

[9] = test system: Capan-1 pancreatic adenocarcinoma cells; experiment: as above; format: cell-based; conditions: Homo sapiens, 72 h
Procedure: (§3) Culture media were purchased from Gibco Life Technologies, USA, and supplemented with 10% fetal bovine serum (HyClone, GE Healthcare Life Sciences, Chicago, IL, USA), except for the media for SW620, PC3 and HeLa cells, which were purchased from Sigma.
(§4) Cells were incubated for 72 h with compounds and were then analyzed using the CellTiter 96® AQueous One Solution Cell Proliferation Assay (MTS) reagent (Promega) according to the manufacturer’s instructions. […] Compounds were tested in two independent experiments. SW620, PC3 and HeLa cells were seeded in 96-well microtiter plates at 1 × 10^4 to 3 × 10^4 cells/mL, depending on the doubling times of the specific cell line. Test agents were then added in five 10-fold dilutions (10^−8 to 10^−4 M). Working dilutions were freshly prepared on the day of testing. After 72 h of incubation, the cell growth rate was evaluated using the MTT assay as described previously. […] Each test was performed in quadruplicate in at least two individual experiments.

[10] = test system: DND-41 acute lymphoblastic leukemia cells; experiment: as above; format: cell-based; conditions: Homo sapiens, DND41, 72 h
Procedure: as §3, §4

[11] = test system: HL-60 acute myeloid leukemia cells; experiment: as above; format: cell-based; conditions: Homo sapiens, 72 h
Procedure: as §3, §4

[12] = test system: Z-138 non-Hodgkin lymphoma cells; experiment: as above; format: cell-based, human
Source text: as §1, §2

[13] = test system: HeLa cervical carcinoma cells; experiment: In vitro antiproliferative activity, MTT assay; format: cell-based; conditions: Homo sapiens, 72 h
Source text: as §1, §2

[14] = test system: PC3 prostate carcinoma cells; experiment: In vitro antiproliferative activity, MTT assay; format: cell-based; conditions: Homo sapiens, 72 h
Source text: as §1, §2

[15] = test system: SW620 colon carcinoma cells; experiment: In vitro antiproliferative activity, MTT assay; format: cell-based; conditions: Homo sapiens, SW-620, 72 h
Source text: as §1, §2

E. coli ATCC 25922 = experiment: Antibacterial activity in vitro, broth microdilution; format: cell-based; conditions: Escherichia coli, ATCC25922; broth microdilution (CLSI), 16–24 h at 37 °C
Procedure: (§5) Synthesized compounds were prepared as 10 mM DMSO solutions and tested in a final concentration range of 100–0.2 µM [34].
(§6) Broth microdilution testing was performed according to CLSI (Clinical Laboratory Standards Institute) guidelines. MIC (minimal inhibitory concentration) values were defined as the last tested concentration of the compound at which there was no visible growth of bacteria. Inoculums for each microorganism were prepared using the direct colony suspension method, where broth solutions that achieved turbidity equivalent to 0.5 McFarland standard were additionally diluted 100× with Ca-adjusted MH media (Becton Dickinson).

S. Pneumoniae ATCC 49619 = experiment: as above; format: cell-based; conditions: Streptococcus pneumoniae, ATCC49619; broth microdilution (CLSI), 16–24 h at 37 °C
Procedure: as §5, §6

S. aureus ATCC 29213 = experiment: as above; format: cell-based; conditions: Staphylococcus aureus, ATCC29213; broth microdilution (CLSI), 16–24 h at 37 °C
Procedure: as §5, §6

E. coli Efflux Del = experiment: microbe, parasite or virus in culture; format: cell-based; conditions: Escherichia coli, read-out: MIC E. coli Efflux Del
Procedure: as §5, §6

HCoV 229E = experiment: Antiviral CPE reduction assay; format: cell-based; conditions: Human coronavirus 229E, HEL 299 cells
HCoV OC43 = experiment: Antiviral CPE reduction assay; format: cell-based, human coronavirus OC43; conditions: Betacoronavirus 1, OC43, HEL 299 cells
HCoV NL63 = experiment: Antiviral CPE reduction assay; format: cell-based; conditions: Human coronavirus NL63, Huh-7, Huh7 cells
RSV A Long = experiment: Antiviral CPE reduction assay; format: cell-based, respiratory syncytial virus A; conditions: human respiratory syncytial virus; CPE reduction, HEL 299 cells
HSV-1 KOS = experiment: Antiviral CPE reduction assay; format: cell-based, herpes simplex virus-1; conditions: Human alphaherpesvirus 1
YFV 17D = experiment: microbe, parasite or virus in culture; format: cell-based; conditions: Yellow fever virus, Huh-7, read-out: EC50 YFV 17D Huh7
Zika mr766 = experiment: Antiviral CPE reduction assay; format: cell-based; conditions: Zika virus, Huh-7, Huh7 cells
Sindbis = experiment: Antiviral CPE reduction assay; format: cell-based; conditions: Sindbis virus, Huh-7, Huh7 cells
[16] = test system: SW620, HeLa and PC3 cancer cell lines; experiment: In vitro antiproliferative activity, all three selected cell lines (MTT); format: cell-based; conditions: Homo sapiens, range over three cell lines, 72 h
Source text: as §1
(§7) Adherent cell lines LN-229, HCT-116, NCI-H460 and Capan-1 cells were seeded at a density between 500 and 1500 cells per well in 384-well tissue culture plates (Greiner). […]. Cells were incubated for 72 h with compounds and were then analyzed using the CellTiter 96® AQueous One Solution Cell Proliferation Assay (MTS) reagent (Promega) according to the manufacturer’s instructions. Absorbance of the samples was measured at 490 nm using a SpectraMax Plus 384 (Molecular Devices), and OD values were used to calculate the 50% inhibitory concentration (IC50). Compounds were tested in two independent experiments. […] After 72 h of incubation, the cell growth rate was evaluated using the MTT assay as described previously. […]

in vitro [17] = conditions: human
in vitro [18] = conditions: human; remark: listed apart in the source
in vitro [19] = conditions: dog
[20] = test system: panel of cancer cell lines (LN-229, Capan-1, HCT-116, NCI-H460, DND-41, HL-60, K-562, Z-138); experiment: In vitro antiproliferative activity, whole panel of Table 1 (MTS); format: cell-based; conditions: Homo sapiens, range over eight cell lines, 72 h, read-out: IC50 values ranging over the panel of cancer cell lines of Table 1
Source text: as §1, §7

in vitro [21] = experiment: in vitro

Row | Structure (SMILES) | EC50 [1] [µM] | EC50 [2] [µM] | EC50 [3] [µM] | IC50 [5] [µM] | IC50 [6] [µM] | IC50 [7] [µM] | IC50 [8] [µM] | IC50 [9] [µM] | IC50 [10] [µM] | IC50 [11] [µM] | IC50 ([12]; Homo sapiens, Z-138, 72 h) [µM] | IC50 [13] [µM] | IC50 [14] [µM] | IC50 [15] [µM] | MIC (E. coli ATCC 25922) [µM] | MIC (S. Pneumoniae ATCC 49619) [µM] | MIC (S. aureus ATCC 29213) [µM] | MIC (E. coli Efflux Del) [µM] | melting point [°C] | CC50 (in vitro [19]) [µM] | other results
1 | CC(N)C12CC3CC(CC(C3)C1)C2 (centres unmarked) [Rimantadine, rimantadine, reference compound] | 4.4 ± 4.2 | 0.05 ± 0.05 | > 100 |  |  |  |  |  |  |  |  |  |  |  |  |  |  |  |  |  | CC50 [4]: > 100 µM
2 | N#Cc1ccc(-c2nc3ncc(Br)cc3[nH]2)cc1 [Compound 8, 4-(6-Bromo-1H-imidazo[4,5-b]pyridin-2-yl)benzonitrile] | 72.4 ± 8 | 35.9 ± 12.4 | 56.7 ± 10.2 | > 100 | > 100 | > 100 | > 100 | > 100 | > 100 | > 100 | > 100 | 1.8 ± 0.02 | 3.2 ± 0.7 | 2 ± 0.2 | > 64 | > 64 | > 64 | > 64 | > 300 | > 100 | EC50 (HCoV 229E): > 100 µM; EC50 (HCoV OC43): > 100 µM; EC50 (HCoV NL63): > 100 µM; EC50 (RSV A Long): > 100 µM; EC50 (HSV-1 KOS): > 100 µM; EC50 (YFV 17D): > 100 µM; EC50 (Zika mr766): > 100 µM; EC50 (Sindbis): > 100 µM; IC50 [16]: 1.8 to 3.2 µM; CC50 (in vitro [17]): > 100 µM; CC50 (in vitro [18]): > 100 µM
3 | Brc1cnc2nc(-c3ccc(C4=NCCN4)cc3)[nH]c2c1.Cl [Compound 14, 6-Bromo-2-(4-(4,5-dihydro-1H-imidazol-2-yl)phenyl)-1H-imidazo[4,5-b]pyridine Hydrochloride] |  |  |  | 13.6 ± 2.8 | 49.7 ± 3.1 | 8 ± 1.8 | 13 ± 7.6 | 9.4 ± 0.4 | 10.8 ± 0.4 | 9.5 ± 1.3 | 8.4 | 4.3 ± 2.6 | 1.5 ± 0.5 | 0.7 ± 0.3 | > 64 | > 64 | > 64 | 32 | > 300 | 33.9 ± 0.1 | IC50 ([12]; 72 h): 8.5 ± 2 µM; IC50 [20]: 8 to 49.7 µM
4 | CC(C)NC(=N)c1ccc(-c2nc3ncccc3[nH]2)cc1.Cl [Compound 13, 4-(1H-Imidazo[4,5-b]pyridin-2-yl)-N-isopropylbenzimidamide Hydrochloride] |  |  |  | > 100 | > 100 | > 100 | > 100 | > 100 | > 100 | > 100 | > 100 | > 100 | > 100 | > 100 | > 64 | > 64 | > 64 | > 64 | 293 to 295 | > 100 | CC50 (in vitro [17]): 81.1 ± 26.8 µM; CC50 (in vitro [18]): > 100 µM; CC50 (in vitro [21]): > 30 µM
